# Laboratory results published in patent US10131652B2, “Pyrimidinyloxy benzene derivatives as herbicides” (E. I. DU PONT DE NEMOURS AND COMPANY, priority 2014, dated 2018).
# Read-outs that look alike come from different tables or passages of the source.
# What was measured:
# Assay in all cases: Test E pre-/postemergence plant response
# Type in all cases: in vivo
# [1] = tested on: winter wheat (Triticum aestivum); conditions: scale 0 to 100, read-out: Plant response rating, Wheat, Winter; for plant injury at 16 g/ha: 16 g ai/ha; for plant injury at 62 g/ha: 62 g ai/ha; for plant injury at 125 g/ha: 125 g ai/ha
# Description: (§1) Seeds of plant species selected from bluegrass (annual bluegrass, Poa annua), blackgrass (Alopecurus myosuroides), canarygrass (Phalaris minor), chickweed (common chickweed, Stellaria media), galium (catchweed bedstraw, Galium aparine), downy bromegrass (Bromus tectorum), field poppy (Papaver rhoeas), field violet (Viola arvensis), green foxtail (Setaria viridis), deadnettle (henbit deadnettle, Lamium amplexicaule), Italian ryegrass (Lolium multiflorum), kochia (Kochia scoparia), lambsquarters (Chenopodium album), oilseed rape (Brassica napus), pigweed (Amaranthus retroflexus), Russian thistle (Salsola iberica), chamomile (scentless chamomile, Matricaria inodora), speedwell (bird's-eye speedwell, Veronica persica), spring barley (Hordeum vulgare), spring wheat (Triticum aestivum), wild buckwheat (Polygonum convolvulus), wild mustard (Sinapis arvensis), wild oat (Avena fatua), wild radish (Raphanus raphanistrum), windgrass (Apera spica-venti), winter barley (Hordeum vulgare), and winter wheat (Triticum aestivum) were planted into a silt loam soil and treated preemergence with test chemicals formulated in a non-phytotoxic solvent mixture which included a surfactant. At the same time, these species were planted in pots containing Redi-Earth® planting medium (Scotts Company, 14111 Scottslawn Road, Marysville, Ohio 43041) comprising spaghnum peat moss, vermiculite, wetting agent and starter nutrients and treated with postemergence applications of the test chemicals formulated in the same manner. Plants ranged in height from 2 to 18 cm (1- to 4-leaf stage).
# (§2) Treated plants and controls were maintained in a controlled growth environment for 7 to 21 days after which time all species were compared to controls and visually evaluated. Plant response ratings, summarized in Table E, are based on a scale of 0 to 100 where 0 is no effect and 100 is complete control. A dash (-) response means no test result.
# [2] = tested on: wild radish (Raphanus raphanistrum); conditions: scale 0 to 100, read-out: Plant response rating, Radish, Wild; for pest or weed control at 16 g/ha: 16 g ai/ha; for pest or weed control at 31 g/ha: 31 g ai/ha; for pest or weed control at 62 g/ha: 62 g ai/ha; for pest or weed control at 125 g/ha: 125 g ai/ha
# Description: as §1, §2
# [3] = tested on: field violet (Viola arvensis); conditions: scale 0 to 100, read-out: Plant response rating, Field Violet; for pest or weed control at 16 g/ha: 16 g ai/ha; for pest or weed control at 31 g/ha: 31 g ai/ha; for pest or weed control at 62 g/ha: 62 g ai/ha; for pest or weed control at 125 g/ha: 125 g ai/ha
# Description: as §1, §2
# [4] = tested on: deadnettle (henbit deadnettle, Lamium amplexicaule); conditions: scale 0 to 100, read-out: Plant response rating, Deadnettle; for pest or weed control at 16 g/ha: 16 g ai/ha; for pest or weed control at 31 g/ha: 31 g ai/ha; for pest or weed control at 62 g/ha: 62 g ai/ha; for pest or weed control at 125 g/ha: 125 g ai/ha
# Description: as §1, §2
# [5] = tested on: green foxtail (Setaria viridis); conditions: scale 0 to 100, read-out: Plant response rating, Foxtail, Green; for pest or weed control at 16 g/ha: 16 g ai/ha; for pest or weed control at 31 g/ha: 31 g ai/ha; for pest or weed control at 62 g/ha: 62 g ai/ha; for pest or weed control at 125 g/ha: 125 g ai/ha
# Description: as §1, §2
# [6] = tested on: lambsquarters (Chenopodium album); conditions: scale 0 to 100, read-out: Plant response rating, Lambsquarters; for pest or weed control at 16 g/ha: 16 g ai/ha; for pest or weed control at 31 g/ha: 31 g ai/ha; for pest or weed control at 62 g/ha: 62 g ai/ha; for pest or weed control at 125 g/ha: 125 g ai/ha
# Description: as §1, §2
# [7] = tested on: spring wheat (Triticum aestivum); conditions: scale 0 to 100, read-out: Plant response rating, Wheat, Spring; for plant injury at 16 g/ha: 16 g ai/ha; for plant injury at 62 g/ha: 62 g ai/ha; for plant injury at 125 g/ha: 125 g ai/ha
# Description: as §1, §2
# [8] = tested on: oilseed rape (Brassica napus); conditions: scale 0 to 100, read-out: Plant response rating, Oilseed Rape; for plant injury at 16 g/ha: 16 g ai/ha; for plant injury at 31 g/ha: 31 g ai/ha; for plant injury at 62 g/ha: 62 g ai/ha; for plant injury at 125 g/ha: 125 g ai/ha
# Description: as §1, §2
# [9] = tested on: wild oat (Avena fatua); conditions: scale 0 to 100, read-out: Plant response rating, Oat, Wild; for pest or weed control at 16 g/ha: 16 g ai/ha; for pest or weed control at 31 g/ha: 31 g ai/ha; for pest or weed control at 62 g/ha: 62 g ai/ha; for pest or weed control at 125 g/ha: 125 g ai/ha
# Description: as §1, §2
# [10] = tested on: bluegrass (annual bluegrass, Poa annua); conditions: scale 0 to 100, read-out: Plant response rating, Bluegrass; for pest or weed control at 16 g/ha: 16 g ai/ha; for pest or weed control at 31 g/ha: 31 g ai/ha; for pest or weed control at 62 g/ha: 62 g ai/ha; for pest or weed control at 125 g/ha: 125 g ai/ha
# Description: as §1, §2
# [11] = tested on: galium (catchweed bedstraw, Galium aparine); conditions: scale 0 to 100, read-out: Plant response rating, Galium; for pest or weed control at 16 g/ha: 16 g ai/ha; for pest or weed control at 31 g/ha: 31 g ai/ha; for pest or weed control at 62 g/ha: 62 g ai/ha; for pest or weed control at 125 g/ha: 125 g ai/ha
# Description: as §1, §2
# [12] = post-emergence, 31 g ai/ha, Postemergence
structure (smiles),measurement,setting,value
"Fc1cccc(Oc2ncc(Cl)cn2)c1-c1cc(C(F)F)on1 [Compound 55, 5-chloro-2-[2-[5-(difluoromethyl)-3-isoxazolyl]-3-fluorophenoxy]pyrimidine]",plant injury at 16 g/ha,"[1]; post-emergence, Postemergence",0%
same,plant injury at 31 g/ha,[1]; [12],15%
same,plant injury at 62 g/ha,"[1]; post-emergence, Postemergence",30%
same,plant injury at 125 g/ha,"[1]; post-emergence, Postemergence",40%
same,plant injury at 16 g/ha,"[1]; pre-emergence, Preemergence",5%
same,plant injury at 62 g/ha,"[1]; pre-emergence, Preemergence",10%
same,plant injury at 125 g/ha,"[1]; pre-emergence, Preemergence",20%
same,pest or weed control at 16 g/ha,"[2]; post-emergence, Postemergence",75%
same,pest or weed control at 31 g/ha,"[2]; post-emergence, Postemergence",70%
same,pest or weed control at 62 g/ha,"[2]; post-emergence, Postemergence",80%
same,pest or weed control at 125 g/ha,"[2]; post-emergence, Postemergence",80%
same,pest or weed control at 16 g/ha,"[2]; pre-emergence, Preemergence",70%
same,pest or weed control at 31 g/ha,"[2]; pre-emergence, Preemergence",100%
same,pest or weed control at 62 g/ha,"[2]; pre-emergence, Preemergence",100%
same,pest or weed control at 125 g/ha,"[2]; pre-emergence, Preemergence",100%
same,pest or weed control at 16 g/ha,"[3]; post-emergence, Postemergence",65%
same,pest or weed control at 31 g/ha,"[3]; post-emergence, Postemergence",70%
same,pest or weed control at 62 g/ha,"[3]; post-emergence, Postemergence",85%
same,pest or weed control at 125 g/ha,"[3]; post-emergence, Postemergence",90%
same,pest or weed control at 16 g/ha,"[3]; pre-emergence, Preemergence",70%
same,pest or weed control at 31 g/ha,"[3]; pre-emergence, Preemergence",80%
same,pest or weed control at 62 g/ha,"[3]; pre-emergence, Preemergence",100%
same,pest or weed control at 125 g/ha,"[3]; pre-emergence, Preemergence",100%
same,pest or weed control at 16 g/ha,"[4]; post-emergence, Postemergence",20%
same,pest or weed control at 31 g/ha,"[4]; post-emergence, Postemergence",50%
same,pest or weed control at 62 g/ha,"[4]; post-emergence, Postemergence",70%
same,pest or weed control at 125 g/ha,"[4]; post-emergence, Postemergence",80%
same,pest or weed control at 16 g/ha,"[4]; pre-emergence, Preemergence",0%
same,pest or weed control at 31 g/ha,"[4]; pre-emergence, Preemergence",0%
same,pest or weed control at 62 g/ha,"[4]; pre-emergence, Preemergence",0%
same,pest or weed control at 125 g/ha,"[4]; pre-emergence, Preemergence",0%
same,pest or weed control at 16 g/ha,"[5]; post-emergence, Postemergence",30%
same,pest or weed control at 31 g/ha,"[5]; post-emergence, Postemergence",45%
same,pest or weed control at 62 g/ha,"[5]; post-emergence, Postemergence",50%
same,pest or weed control at 125 g/ha,"[5]; post-emergence, Postemergence",60%
same,pest or weed control at 16 g/ha,"[5]; pre-emergence, Preemergence",10%
same,pest or weed control at 31 g/ha,"[5]; pre-emergence, Preemergence",25%
same,pest or weed control at 62 g/ha,"[5]; pre-emergence, Preemergence",100%
same,pest or weed control at 125 g/ha,"[5]; pre-emergence, Preemergence",100%
same,pest or weed control at 16 g/ha,"[6]; post-emergence, Postemergence",75%
same,pest or weed control at 31 g/ha,"[6]; post-emergence, Postemergence",80%
same,pest or weed control at 62 g/ha,"[6]; post-emergence, Postemergence",85%
same,pest or weed control at 125 g/ha,"[6]; post-emergence, Postemergence",90%
same,pest or weed control at 16 g/ha,"[6]; pre-emergence, Preemergence",95%
same,pest or weed control at 31 g/ha,"[6]; pre-emergence, Preemergence",100%
same,pest or weed control at 62 g/ha,"[6]; pre-emergence, Preemergence",100%
same,pest or weed control at 125 g/ha,"[6]; pre-emergence, Preemergence",100%
same,plant injury at 16 g/ha,"[7]; post-emergence, Postemergence",5%
same,plant injury at 31 g/ha,[7]; [12],15%
same,plant injury at 62 g/ha,"[7]; post-emergence, Postemergence",25%
same,plant injury at 125 g/ha,"[7]; post-emergence, Postemergence",45%
same,plant injury at 16 g/ha,"[7]; pre-emergence, Preemergence",15%
same,plant injury at 62 g/ha,"[7]; pre-emergence, Preemergence",15%
same,plant injury at 125 g/ha,"[7]; pre-emergence, Preemergence",35%
same,plant injury at 16 g/ha,"[8]; post-emergence, Postemergence",75%
same,plant injury at 31 g/ha,"[8]; post-emergence, Postemergence",75%
same,plant injury at 62 g/ha,"[8]; post-emergence, Postemergence",90%
same,plant injury at 125 g/ha,"[8]; post-emergence, Postemergence",95%
same,plant injury at 16 g/ha,"[8]; pre-emergence, Preemergence",20%
same,plant injury at 31 g/ha,"[8]; pre-emergence, Preemergence",100%
same,plant injury at 62 g/ha,"[8]; pre-emergence, Preemergence",100%
same,plant injury at 125 g/ha,"[8]; pre-emergence, Preemergence",100%
same,pest or weed control at 16 g/ha,"[9]; post-emergence, Postemergence",10%
same,pest or weed control at 31 g/ha,"[9]; post-emergence, Postemergence",15%
same,pest or weed control at 62 g/ha,"[9]; post-emergence, Postemergence",40%
same,pest or weed control at 125 g/ha,"[9]; post-emergence, Postemergence",50%
same,pest or weed control at 16 g/ha,"[9]; pre-emergence, Preemergence",0%
same,pest or weed control at 31 g/ha,"[9]; pre-emergence, Preemergence",15%
same,pest or weed control at 62 g/ha,"[9]; pre-emergence, Preemergence",35%
same,pest or weed control at 125 g/ha,"[9]; pre-emergence, Preemergence",45%
same,pest or weed control at 16 g/ha,"[10]; post-emergence, Postemergence",0%
same,pest or weed control at 31 g/ha,"[10]; post-emergence, Postemergence",0%
same,pest or weed control at 62 g/ha,"[10]; post-emergence, Postemergence",15%
same,pest or weed control at 125 g/ha,"[10]; post-emergence, Postemergence",25%
same,pest or weed control at 16 g/ha,"[10]; pre-emergence, Preemergence",0%
same,pest or weed control at 31 g/ha,"[10]; pre-emergence, Preemergence",10%
same,pest or weed control at 62 g/ha,"[10]; pre-emergence, Preemergence",10%
same,pest or weed control at 125 g/ha,"[10]; pre-emergence, Preemergence",100%
same,pest or weed control at 16 g/ha,"[11]; post-emergence, Postemergence",70%
same,pest or weed control at 31 g/ha,"[11]; post-emergence, Postemergence",85%
same,pest or weed control at 62 g/ha,"[11]; post-emergence, Postemergence",80%
same,pest or weed control at 125 g/ha,"[11]; post-emergence, Postemergence",85%
same,pest or weed control at 16 g/ha,"[11]; pre-emergence, Preemergence",10%
same,pest or weed control at 31 g/ha,"[11]; pre-emergence, Preemergence",100%
same,pest or weed control at 62 g/ha,"[11]; pre-emergence, Preemergence",70%
same,pest or weed control at 125 g/ha,"[11]; pre-emergence, Preemergence",100%
